Results from patent publication US8623377B2, “Joint-homing peptides and uses thereof” (University of Maryland, Baltimore, priority 2011, dated 2014).

Key:
[1] = system: HUVECs; assay: Endothelial tube (tubule) formation on Matrigel with VEGF; type: cell-based, human; details: VEGF 10 ng/mL, peptide 0-100 μg/mL
Method: FIG. 4A: Draining lymph node leukocytes from arthritic rats were dye-tagged with PKH67 and injected i.v. into arthritic rats. One group of rats was left untreated, and the other groups were treated with ADK or NQR peptide. After 24 hours, the synovium-infiltrating cells (SICs) were harvested from the joints, subjected to cytospin, and analyzed by fluorescence microscopy (left). In parallel, another set of synovium-infiltrating cells were stained with PE-labeled anti-CD3 or anti-CD 11b/c+ antibody and analyzed by flow cytometry (right). FIG. 4B: HUVECs were cultured on Matrigel-coated wells for 24 hours in the presence of VEGF (10 ng/mL) and various concentrations (0-100 μg/mL) of NQR (left), ADK (center), and RGD (right) peptides. The branches of vessel-like tubes were counted. A reprensentative set of results is shown. *P<0.05, compared with the VEGF-alone control.
HUVECs (1×10^4) were cultured in 80 μL/well of growth factor-reduced Matrigel (BD Biosciences) in a 96-well plate in 100 μL/well of F-12K medium (with no supplements). These cells were then treated for 20 h with VEGF (R&D Systems) in the presence or absence of different concentrations of peptides (NQR, ADK, or RGD). Tubule formation was observed under a microscope, quantitated, and photographed.

[2] = system: ERK1/2; assay: VEGF-induced signaling in HUVECs, Western blot p-ERK1/2; type: cell-based, human; details: peptide 10, 50, 100 μg/mL 1 h, then VEGF 10 ng/mL 20 min
Text: FIG. 6A: HUVECs were stimulated with VEGF and treated with the indicated concentrations of peptides. Phosphorylated ERK1/2 and Akt, as well as total ERK1/2 and Akt, were detected by Western blot analysis. FIG. 6B: Thereafter, p-ERK1/2 and p-Akt were quantified by densitometry, normalized to total ERK1/2 (left) and Akt (right), respectively, and compared with cells in serum-free medium. The results of a representative experiment from a set of three independent experiments are shown. *P<0.05, compared with the positive control.
HUVECs were grown in F-12K medium in the presence of endothelial cell growth supplement (ECGS) (BD Biosciences) and 15% FBS. Confluent cells were starved in basal medium (without ECGS and FBS) for 6 h. Then the cells were pretreated for 1 h with different concentrations (10, 50, and 100 μg/mL) of a peptide (NQR, ADK, or RGD) in fresh basal medium, followed by treatment with VEGF (10 ng/mL) for another 20 min. The conditional medium was discarded, and the cells were lysed using a lysis buffer containing protease inhibitors and phosphatase inhibitors. The cell lysate was then centrifuged, and the resulting supernatant was used for analysis of signaling molecules using specific antibodies to human pERK1/2, ERK1/2, pAkt, Akt, and GAPDH (Cell Signaling Technology) by Western blot analysis. The intensity of the bands in the gel was quantified by densitometry. The levels of p-ERK1/2 and p-Akt were normalized to total ERK1/2 and Akt, respectively, and compared with cells in serum-free medium.

[3] = system: CD31-expressing endothelial cells from an arthritic rat joint; assay: Binding of fluorescein-labeled peptide to CD31-expressing endothelial cells from arthritic rat joint; type: cell-based
Method: FIG. 2A: Binding of specific phage encoding the peptide NQR or ADK to the vascular endothelium was visualized by immunohistochemical examination of the hind paw section of the rthritic rats using the anti-T7 phage antibody. The binding of phage was tested in the presence or absence of the corresponding synthetic peptide. BV, blood vessel, L, lumen. FIG. 2B: Arthritic rats were injected with specific phage (ADK phage, left; NQR phage, center; or RGD phage, right) in the presence or absence of the corresponding synthetic peptide, and the titer of the phage recovered from the synovial tissue was assessed. *P<0.01. FIG. 2C: CD31-expressing endothelial cells were isolated from arthritic rat joints (upper) or the liver (lower) and stained with DAPI (blue), FITC-labeled peptide NQR (green), or Alexa Fluor 594-labeled anti-rat CD31 antibody (red). Also shown is the staining overlay (merge) of green and red (yellow). The inset is an enlarged view of a single cell; original magnification, 20×. FIG. 2D: LPS-stimulated HUVECs were stained with DAPI and FITC-labeled peptide NQR and observed under a fluorescence microscope, original magnification, 100×. […]

[4] = system: HUVECs attachment to vitronectin; assay: Attachment of HUVECs to vitronectin; type: cell-based, human; details: peptide 30-800 μg/mL, 1 h on vitronectin-coated wells
Method: HUVECs were first suspended in F-12K medium containing the indicated concentrations of NQR, AK or RGD peptide and then incubated for 1 h in microtiter wells coated with vitronectin. The number of cells that attached to vitronectin was quantified. The results of three independent experiments are shown. *P<0.05, compared with the baseline control.
The attachment of HUVECs to vitrnectin was quantified as described (37, 38). Microtiter wells were coated overnight at 4° C. with 2 μg/mL of vitronectin (BD Biosciences). These wells were then blocked for 1 h at 37° C. with 10 mg/mL of BSA (Sigma-Aldrich). In parallel, HUVECs (1.5×10^5 cells/mL) suspended in F-12K medium containing 10% FBS were incubated for 15 min at 37° C. with different concentrations (30-800 μg/mL) of NQR, ADK, or RGD peptide. Thereafter, this cell suspension 100 μL/well) was added to the vitronectin-coated wells, followed by incubation at 37° C. for 1 h. After washing, the number of attached cells was determined using crystal violet (Fisher Scientific).

## CLDNQRPKC (Synthetic peptide homing to joint in an animal) [NQR peptide, joint-homing phage-derived synthetic peptide]
[1]
  effect on endothelial cell tube formation: inhibited tube formation
[2]
  effect on VEGF-induced pERK: induced a decrease in pERK
[3]; CD31-expressing endothelial cells, arthritic rat joint
  binding of fluorescein-labeled peptide to joint-derived endothelial cells: bound specifically to the joint-derived
[3]; joint-derived endothelial cells
  colocalization of peptide with CD31: colocalized with CD31
[4]
  effect on attachment of HUVECs to vitronectin: Neither peptide had any effect
